Laboratory results taken from patent US20250197417A1, “CRYSTALLINE INTERMEDIATES” (QBIOTICS PTY LTD, priority 2021, published 2025).

Columns and labels:
[1] = Crystallization study, preliminary solvent screening (solubility comments); assay type: physicochemical
Excerpt: An aliquot of purified compound of formula (Ia) obtained from Example 4 (0.83 L containing about 10 g of compound) was used in the crystallization study.

[2] = Storage stability of crystalline forms of compound of formula (Ia); assay type: physicochemical
Procedure: Form A of the crystalline anhydrous Compound of formula (Ia) was stable for at least 9 months in industrial packaging (Type III amber glass vial (10 mL) closed by a black plastic screw cap with polyethylene stoppers) at 25° C. and 60% relative humidity and as a free crystalline powder at 80° C. and 60% humidity for 24 hours.
The anhydrous crystalline Form B was characterized by an X-ray powder diffraction (X-RPD) pattern obtained using the copper wavelengths λ1 and λ2 of 1.54056 Å and 1.54439 Å showing a crystalline structure and comprising distinctive reflections, expressed as 20 degrees values, at 4.9, 8.5, 9.8, 11.4, 14.6, 16.5, 17.5, 19.5, 21.4, 27.7, 28.7±0.2 degrees 2θ.

CC1=CC2[C@]3(O)C(C4C(C)(C)[C@]4(O)[C@H](O)[C@H]3C)[C@@H]3O[C@@]34COC(C)(C)O[C@H]4[C@]2(O)C1=O (stereo partly shown) [Compound of formula (Ia)]
Comment (solubility) ([1]; 2-Propanol, 5 V → 10 V, 20-25° C. → reflux, remained dissolved): Remained
Comment (solubility) ([1]; Acetone, 5 V → 10 V, 20-25° C. → reflux, soluble only with 10 V of acetone at reflux): Soluble only
Comment (solubility) ([1]; Acetonitrile, 5 V → 10 V, 20-25° C. → reflux, dissolution observed at reflux): Dissolution
Comment (solubility) ([1]; Dimethylformamide, 5 V → 10 V, 20-25° C., soluble only with 10 V of DMF): Soluble only
Comment (solubility) ([1]; Ethyl acetate, 5 V → 10 V, 20-25° C., remained dissolved): Remained
Comment (solubility) ([1]; Methyl tert-butyl ether, 5 V → 20 V, 20-25° C. → reflux): Not soluble

CC1=CC2[C@]3(O)C(C4C(C)(C)[C@]4(O)[C@H](O)[C@H]3C)[C@@H]3O[C@@]34COC(C)(C)O[C@H]4[C@]2(O)C1=O (stereo partly shown) [Form A]
stable (storage time) ([2]; free crystalline powder, 80° C. and 60% humidity): 24 h
stable (storage time) ([2]; industrial packaging (Type III amber glass vial, 10 mL, screw cap with polyethylene stoppers), 25° C. and 60% relative humidity): at least 9 months
solid form change upon storage ([2]; storage at 5° C. for 5 days): transformed into a dihydrate form
solid form change upon storage ([2]; storage at 25° C. at 80% relative humidity for 68 hours): a new stable anhydrous crystalline form was formed, Form B
solid form change upon storage ([2]; storage at 40° C. at 80% relative humidity for 7 days): a new stable anhydrous crystalline form was formed, Form B

CC1=CC2[C@]3(O)C(C4C(C)(C)[C@]4(O)[C@H](O)[C@H]3C)[C@@H]3O[C@@]34COC(C)(C)O[C@H]4[C@]2(O)C1=O (stereo partly shown) [Form B]
stable unchanged (further storage time) ([2]; 25° C. at 80% relative humidity): ≥ 7 days

CC1=CC2[C@]3(O)C(C4C(C)(C)[C@]4(O)[C@H](O)[C@H]3C)[C@@H]3O[C@@]34COC(C)(C)O[C@H]4[C@]2(O)C1=O (stereo partly shown) [dihydrate form]
solid form change upon storage ([2]; storage at 25° C. and 80% relative humidity for 5 days): transformed back to Form A
